Laboratory results taken from US20220162169A1, “6-OXO-1,6-DIHYDROPYRIDAZINE PRODRUG DERIVATIVE, PREPARATION METHOD THEREFOR, AND APPLICATION THEREOF IN MEDICINE” (JIANGSU HENGRUI MEDICINE CO., LTD., priority 2019, published 2022).
pIC50: −log10 of the molar value. Values after ≈ are worked out from the molar mass of the structure shown.

Columns and labels:
NaV1.8 ion channel = target: T1, NaV1.8 ion channel (Homo sapiens, UniProt Q9Y5Y9); assay: Manual patch clamp, inhibitory activity on NaV1.8 stably expressed on HEK293 cells; assay type: cell-based; details: HEK293 cells stably expressing NaV1.8, manual patch clamp, resting protocol (clamped at -80 mV, depolarized to 10 mV), 1 μM TTX; read-out: IC50 on inhibiting the Nav1.8 channel activity
T1 construct: expressed in transfected cells
Source text: Test Example 3. Determination of the Inhibitory Activity of the Compounds of the Present Disclosure on NaV1.8
The purpose of the experiment is to investigate the effect of the compounds on NaV1.8 ion channel in an in vitro experiment, wherein the NaV1.8 ion channel is stably expressed on HEK293 cells. After the NaV1.8 current becomes stable, the NaV1.8 currents before and after the administration of the compound are compared so as to obtain the effect of the compound on the NaV1.8 ion channel.
Except for NaOH and KOH used for acid titration and base titration, all the compounds used for formulating the extracellular fluid and intracellular fluid were purchased from Sigma (St. Louis, Mo.). Extracellular fluid (mM): NaCl, 137; KCl, 4; CaCl2, 1.8; MgCl2, 1; HEPES, 10; glucose, 10; pH 7.4 (NaOH titration). Intracellular fluid (mM): aspartic acid, 140; MgCl2, 2; EGTA, 11; HEPES, 10; pH 7.2 (CsOH titration). All solutions of test compound and control compound contained 1 μM TTX.
The test compound was dissolved in dimethyl sulfoxide (DMSO) at a stock concentration of 9 mM. The stock solution of the test compound was dissolved in the extracellular fluid on the day of the test and formulated into the required concentration.
1) The compound was formulated into solutions with specified concentrations, the solutions were added to the pipelines respectively in order from low to high concentration, and the pipelines were marked.
2) The cell was transferred to the perfusion tank. A positive pressure was applied to the electrode. The tip of the electrode touched the cell. The three-way valve of the air extracting device was adjusted to a three-way state. […]
The cell was clamped at −80 mV. […] The maximum current caused by the square wave was measured. […] After the response became stable, the blocking intensity was calculated. […]
The inhibitory activity of the compounds of the present disclosure on NaV1.8 was determined by the above test, and the resulting IC50 values are shown in Table 3.

[1] = Pharmacokinetics assay in SD rats after intragastric administration, plasma LC/MS/MS; assay type: in vivo
Protocol: Test Example 2. Pharmacokinetics Assay of the Compounds of the Present Disclosure in Rats
SD rats were used as test animals. The drug concentration in plasma at different time points was determined by LC/MS/MS method after oral administration of the compounds of Example 2, Example 6 and Example 7 to SD rats. The pharmacokinetic behavior of the compounds of the present disclosure was studied and evaluated in SD rats.
Forty SD rats (half male and half female, equally divided into ten groups) were purchased from Shanghai Jiesijie Laboratory Animal Co., LTD. (Certificate No.: SCXK(Shanghai) 2013-0006).
An appropriate amount of the compound of Example 2 was weighed, followed by the addition of 5% of DMSO, 5% of tween 80 and 90% of normal saline successively to obtain a colorless, clear and transparent solution.
An appropriate amount of the compound of Example 2 was weighed, followed by the addition of 0.5% sodium carboxymethyl cellulose (containing 0.5% tween 80) to obtain a white homogeneous suspension.
An appropriate amount of the compound of Example 6 was weighed, and added to 200 mM (5% PVPK30+5% TPGS) Na2HPO4 solution (pH=9) to obtain a homogeneous suspension.
An appropriate amount of the compound of Example 7 was weighed, and added to 200 mM (5% PVPK30+5% TPGS) Na2HPO4 solution (pH=9) to obtain a homogeneous suspension.
After an overnight fast, the SD rats were intragastrically administered the test compounds. Regarding to the compound of Example 2 (formulation: 5% of DMSO, 5% of tween 80 and 90% of normal saline), the administration dose was 2 mg/kg, the administration volume was 10 mL/kg, and the administration concentration was 0.2 mg/mL. Regarding to the compound of Example 2 (formulation: 0.5% sodium carboxymethyl cellulose (containing 0.5% tween 80)), the administration dose was 10, 30, 100 mg/kg, the administration volume was 10 mL/kg, and the administration concentration was 1, 3, 10 mg/mL. Regarding to the compound of Example 6, the administration dose was 100, 300, 900 mg/kg, the administration volume was 10 mL/kg, and the administration concentration was 10, 30, 90 mg/mL. Regarding to the compound of Example 7, the administration dose was 10, 30, 100 mg/kg, the administration volume was 10 mL/kg, and the administration concentration was 1, 3, 10 mg/mL.
After an overnight fast, the SD rats were intragastrically administered the test compounds. 0.2 ml of blood was taken from the orbit before the administration and at 0.5, 1.0, 2.0, 4.0, 6.0, 8.0, 11.0 and 24.0 hours after the administration. The samples were stored in heparinized tubes, and centrifuged for 10 minutes at 3500 rpm to separate the blood plasma. The plasma samples were stored at −20° C. The SD rats were fed 2 hours after the administration.
The content of the test compound in the plasma of SD rats after administration of the test compound at different concentrations was determined: 25 μL of SD rat plasma at each time point after the administration was taken, followed by the addition of 50 μL of the internal standard camptothecin solution (100 ng/mL) and 200 μL of acetonitrile. The resulting solution was vortex-mixed for 5 minutes, and centrifuged for 10 minutes (3700 rpm). 3.0 μL of the supernatant was taken from the plasma samples of the compound of Example 2 (the group at the administration dose of 2 mg/kg) for LC/MS/MS analysis. 2.0 μL of the supernatant was taken from the plasma samples of the compound of Example 2 (the group at the administration dose of 10, 30, or 100 mg/kg) for LC/MS/MS analysis. 0.2 μL of the supernatant was taken from the plasma samples of the compound of Example 6 for LC/MS/MS analysis. 1 μL of the supernatant was taken from the plasma samples of the compound of Example 7 for LC/MS/MS analysis. […]

[2] = Solubility in PBS solution (pH 7.4) at room temperature; assay type: physicochemical; details: PBS solution (pH 7.4), aqueous buffer, kinetic from dmso stock; PBS pH 7.4, room temperature, 24 hours shaking, 1% DMSO, average of two measurements; read-out: Solubility in PBS pH7.4
Protocol: Test Example 1. Solubility of the Compound of the Present Disclosure in PBS Solution (pH 7.4) at Room Temperature
2.1 Formulation of the PBS solution (pH 7.4): 0.57 g of NaH2PO42.H2O, 5.55 g of Na2HPO4.12H2O and 6.48 g of NaCl were weighed, followed by the addition of ultra-pure water. The pH was adjusted to 7.4±0.05 with 1 M NaOH or 1 M HCl. Water was added until the volume reached 1 L. The PBS solution was stored in a refrigerator at 4° C. (the storage life was 6 months).
2.2 Formulation of the solution of the compound in PBS 7.4: An appropriate amount of the test compound was weighed, and dissolved in DMSO or a mixed solution of DMSO:acetonitrile:ethanol (1:1:1) to obtain a 10 mM stock solution of the test compound. 10 μL of the stock solution of the test compound and 990 μL of the PBS solution (pH 7.4) were precisely measured and placed in a 2 mL sample vial and mixed well, and the DMSO concentration of the final solution was 1% (v/v). This solution was formulated in duplicate, shaken on a plate bed at room temperature for 24 hours, and centrifuged at 5000 rpm for 20 minutes. The supernatant was analyzed by the liquid chromatograph.
2.3 Formulation of the reference solution: 10 μL of the stock solution of the test sample (concentration: 10 mM, dissolved in DMSO) and 990 μL of an organic mixed solvent (usually DMSO:acetonitrile:ethanol=1:1:1) were precisely measured and placed in a 2 mL sample vial, and mixed well to obtain a clear 100 μM sample solution. The solution was filtered through a 0.45 μm organic phase microporous filter membrane, and the filtrate was analyzed by the liquid chromatograph.
Solubility (μM)=peak area of the sample/peak area of the reference*concentration of the reference (μM)*sample solution dilution factor
The average of two measurements was used as the final solubility.

T1 sequence (Q9Y5Y9 whole entry): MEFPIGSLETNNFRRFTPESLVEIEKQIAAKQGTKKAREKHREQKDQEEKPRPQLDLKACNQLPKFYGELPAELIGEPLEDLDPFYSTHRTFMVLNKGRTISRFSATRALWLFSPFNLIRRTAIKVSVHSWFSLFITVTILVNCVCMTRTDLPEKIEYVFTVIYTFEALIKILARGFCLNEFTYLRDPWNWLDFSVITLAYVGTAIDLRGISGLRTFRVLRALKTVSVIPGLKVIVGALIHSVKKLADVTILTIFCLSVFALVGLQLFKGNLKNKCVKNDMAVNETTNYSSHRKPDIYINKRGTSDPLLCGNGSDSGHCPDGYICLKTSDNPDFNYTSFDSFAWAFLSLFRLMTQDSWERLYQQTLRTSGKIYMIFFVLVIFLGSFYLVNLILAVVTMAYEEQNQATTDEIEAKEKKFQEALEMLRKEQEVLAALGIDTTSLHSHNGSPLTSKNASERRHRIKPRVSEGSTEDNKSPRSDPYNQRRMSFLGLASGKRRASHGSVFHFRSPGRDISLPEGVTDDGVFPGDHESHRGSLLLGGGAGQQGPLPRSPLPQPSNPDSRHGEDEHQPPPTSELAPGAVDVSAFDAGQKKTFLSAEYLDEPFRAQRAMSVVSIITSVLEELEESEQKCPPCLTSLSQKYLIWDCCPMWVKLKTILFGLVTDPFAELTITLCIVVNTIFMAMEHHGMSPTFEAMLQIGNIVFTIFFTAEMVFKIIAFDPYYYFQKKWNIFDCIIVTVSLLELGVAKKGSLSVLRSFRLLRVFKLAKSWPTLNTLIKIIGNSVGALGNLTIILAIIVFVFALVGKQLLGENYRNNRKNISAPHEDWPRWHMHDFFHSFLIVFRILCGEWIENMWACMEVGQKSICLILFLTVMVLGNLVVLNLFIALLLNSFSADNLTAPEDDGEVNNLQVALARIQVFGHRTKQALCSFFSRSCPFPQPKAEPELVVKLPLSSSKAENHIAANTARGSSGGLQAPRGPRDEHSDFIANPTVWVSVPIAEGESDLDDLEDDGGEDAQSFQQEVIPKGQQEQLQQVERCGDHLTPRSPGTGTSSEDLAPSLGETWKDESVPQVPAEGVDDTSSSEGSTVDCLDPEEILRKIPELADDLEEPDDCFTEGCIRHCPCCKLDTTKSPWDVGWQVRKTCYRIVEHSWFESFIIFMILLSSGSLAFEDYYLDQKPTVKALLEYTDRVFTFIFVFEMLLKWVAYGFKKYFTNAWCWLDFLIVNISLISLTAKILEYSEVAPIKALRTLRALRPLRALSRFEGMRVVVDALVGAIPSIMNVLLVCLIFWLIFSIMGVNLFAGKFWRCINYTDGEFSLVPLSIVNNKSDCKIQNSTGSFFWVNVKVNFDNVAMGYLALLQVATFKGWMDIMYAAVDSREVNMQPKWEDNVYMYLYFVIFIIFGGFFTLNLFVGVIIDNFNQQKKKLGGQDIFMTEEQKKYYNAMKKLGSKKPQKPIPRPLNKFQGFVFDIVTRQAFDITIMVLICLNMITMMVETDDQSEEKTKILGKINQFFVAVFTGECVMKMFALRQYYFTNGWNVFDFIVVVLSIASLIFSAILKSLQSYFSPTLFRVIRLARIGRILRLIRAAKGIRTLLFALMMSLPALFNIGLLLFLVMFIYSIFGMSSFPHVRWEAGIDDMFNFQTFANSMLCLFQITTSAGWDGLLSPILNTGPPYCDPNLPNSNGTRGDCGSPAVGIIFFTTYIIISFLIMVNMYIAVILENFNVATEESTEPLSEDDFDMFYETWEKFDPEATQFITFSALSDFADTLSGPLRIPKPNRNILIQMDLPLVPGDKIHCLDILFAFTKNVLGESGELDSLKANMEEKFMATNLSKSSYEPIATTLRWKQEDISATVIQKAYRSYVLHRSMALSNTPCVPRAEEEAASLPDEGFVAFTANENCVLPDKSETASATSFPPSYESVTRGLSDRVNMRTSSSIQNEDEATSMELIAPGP

## [2H]C([2H])([2H])Oc1cc(F)ccc1Oc1cc(C(F)(F)F)c(Cl)cc1C(=O)Nc1cnn(COC(=O)CCC(=O)O)c(=O)c1 [Example 7, 4-((4-(5-Chloro-2-(4-fluoro-2-(methoxy-d3)phenoxy)-4-(trifluoromethyl)benzamido)-6-oxopyridazin-1(6H)-yl)methoxy)-4-oxobutanoic acid]
NaV1.8 ion channel
  pIC50: 7.84
[1]; after intragastric administration, LC/MS/MS
  Detection of the administered prodrug compound itself in rat plasma: not detected
[1]; intragastric administration
  In vivo conversion of the prodrug into its metabolite: converted into compound 7d in vivo
[2]
  solubility at 24 h: 34.5 µM (≈ 20.4 µg/mL)
